Experimental data taken from article PMC9312238, “Novel Organoselenium Redox Modulators with Potential Anticancer, Antimicrobial, and Antioxidant Activities” (Antioxidants, 2022).
Like-named read-outs stand apart in the source and are kept apart here.

What was measured:
Candida albicans = experiment: microbe, parasite or virus in culture; assay type: cell-based; design: C. albicans A% (activity index): concentration or dose not given beside the values; settings: for C. albicans A% (activity index): zone of test compound / zone of standard (clotrimazole) x 100; for zone of inhibition at 20 µM: Candida albicans, read-out: C. albicans IZD (mm)
Procedure: (§1) The antimicrobial activities of the OSe compounds were evaluated against C. albicans yeast, as well as E. coli and S. bacteria, employing the agar well diffusion assay. Furthermore, the MICs (in µM) were determined by the microdilution method according to the reported protocol. More details are in the Supporting Information.
(§2) Compounds were evaluated for their antimicrobial activity against the Gram-negative bacteria Escherichia coli (E. coli) and the Gram-positive bacteria Staphylococcus aureus (S. aureus), as well as the Candida albicans (C. albicans) fungal strain, using the agar diffusion assay. Ampicillin and clotrimazole were used as standards. Indeed, the antimicrobial properties of the OSe compounds were also obtained from the activity index percentage (A%) according to Equation (2). (2) A%=Zone of inhibition by test compound diametre/Zone of inhibition by standard diametre×100 . […]
(§3) 1.1.1. The antimicrobial activity
The antimicrobial activities of the OSe compounds were evaluated against C. albicans yeast as well as E. coli gram-negative and S. aureus gram-positive bacteria employing the agar well diffusion assay. […]
compound by dissolving in DMSO. […]
Petri dishes, which in turn contain a nutrient media (agar 20 g, peptone 5 g, and beef extract 3 g) seeded with the dedicated strain. Incubation lasted for 24 h at 36
(§4) Furthermore, the MICs (in µM) were determined by the microdilution method according to the reported protocol. […]
(§5) Inhibition%= (Ablank-Asample)/(Ablank)*100. (1)

Escherichia coli = experiment: Agar diffusion assay, E. coli; assay type: cell-based; design: E. coli A% (activity index): concentration or dose not given beside the values; settings: for E. coli A% (activity index): zone of test compound / zone of standard (ampicillin) x 100; for zone of inhibition at 20 µM: Escherichia coli, read-out: E. coli IZD (mm)
Staphylococcus aureus = experiment: Agar diffusion assay, S. aureus; assay type: cell-based; design: S. aureus A% (activity index): concentration or dose not given beside the values; settings: for S. aureus A% (activity index): zone of test compound / zone of standard (ampicillin) x 100; for zone of inhibition at 20 µM: Staphylococcus aureus, read-out: S. aureus IZD (mm)
Procedure: as §1, §2, §3
The antimicrobial activities of the OSe compounds were evaluated against C. albicans yeast as well as E. coli gram-negative and S. aureus gram-positive bacteria employing the agar well diffusion assay. Briefly, a concentration of 1 mM was prepared for each compound by dissolving in DMSO. Paper discs of standard size […] were steri-lized in an autoclave and soaked in 20 µL of the test compounds, and placed in the Petri dishes, which in turn contain a nutrient media (agar 20 g, peptone 5 g, and beef extract 3 g) seeded with the dedicated strain. Incubation lasted for 24 h at 36
as §4, §5

[1] = DPPH radical scavenging bioassay; assay type: biochemical; settings: for radical scavenging activity, DPPH assay: compound 1 mM in MeOH, read after 0.5 h at 517 nm; for IC50: concentration decreasing absorbance by 50%
Source text: The antioxidant activity was estimated by ABTS and DPPH bioassays, according to the reported literature method. More details are in the Supplementary Materials.
Recently, OSe compounds were thoroughly used as redox modulators to control many complicated diseases (e.g., cancer and neurodegenerative diseases). The DPPH and ABTS bioassays were extensively used as rapid tools for estimating the antioxidant potency of OSe compounds [50, 51]. Ascorbic acid was used as a standard control, and the antioxidant potency was measured by the ability of the compounds to decolorize the characteristic colors of the ABTS^. and DPPH^. radicals by following the colorimetric decline in absorbance at 734 and 517 nm, respectively (Figure 2).
Figure 2 Evaluation of the antioxidant properties of the OSe compounds employing the ABTS and DPPH assays. All measurements are mean ± SD. In the DPPH assay: absorbance was read after 0.5 h of mixing […] of DPPH with […] of OSe compounds (1 mM, MeOH) at 517 nm. In the ABTS assay: […] of each OSe compound (1 mM, phosphate-buffered methanol) was mixed with the ABTS solution (60 mM), and absorbance was monitored at 734 nm. […]
1.1.1. The antioxidant activity
The hydrogen atom or electron donation ability of the corresponding compounds was measured by estimating the bleaching of the purple color of a methanolic solution of DPPH [29]. This spectrophotometric assay uses stable DPPH. reagent. The sample was prepared by adding […] of the OSe compounds (1 mM in methanol) to […] DPPH in methanol. After 30 min of incubation in the dark, the absorbance was read against a blank at 517 nm. Ascorbic acid (vitamin C) and ebselen were used as standard antioxi-dants (positive control). A blank sample was run without DPPH. A negative control sam-ple was run using methanol instead of the sample. The radical scavenging activity was calculated using the following equation:
as §5

MCF-7 cells = experiment: cells; assay type: cell-based, human; settings: for IC50: MTT, 24 h incubation, MCF-7 cells, read-out: MCF7 IC50; for MCF7 TI (IC50 WI-38 / IC50 MCF-7): therapeutic index, ratio of WI-38 IC50 to MCF-7 IC50
[2] = inhibition zone diameter, six-mm disks soaked with 20 μM of compound

Row | Molecule | C. albicans IZD (mm) (Candida albicans; [2]) | C. albicans A% (activity index) (Candida albicans) | E. coli IZD (mm) (Escherichia coli; [2]) | E. coli A% (activity index) (Escherichia coli) | S. aureus IZD (mm) (Staphylococcus aureus; [2]) | S. aureus A% (activity index) (Staphylococcus aureus) | radical scavenging activity, DPPH assay [1] | IC50 [1] | IC50 (MCF-7 cells) | MCF7 TI (IC50 WI-38 / IC50 MCF-7) (MCF-7 cells) | zone of inhibition at 20 µM (Candida albicans; [2]) | zone of inhibition at 20 µM (Escherichia coli; [2]) | melting point | zone of inhibition at 20 µM (Staphylococcus aureus; [2]) | IC50 (MCF-7 cells; Homo sapiens, MCF7)
1 | 2-((4-(2-(3-hydroxynaphthalen-1(4H)-ylidene)hydrazinyl)phenyl)selanyl)-N-phenylacetamide [Compound 9] | 21 mm | 88% | 20 mm | 87% | 19 mm | 91% | 93% | 20.64 ± 0.14 µM | 3.27 ± 0.2 µM | 12 |  |  |  |  | 
2 | Nc1ccc([Se]CC(=O)Nc2ccccc2)cc1 [Compound 4, 2-((4-aminophenyl)selanyl)-N-phenylacetamide] |  | 54% |  | 61% |  | 71% | 80% |  |  | 4.6 | 13 mm | 14 mm | 121 to 122 °C | 15 mm | 11.3 ± 0.8 µM
3 | CCOc1ccc(NC(=O)C[Se]c2ccc(N)cc2)cc1 [Compound 5, 2-((4-aminophenyl)selanyl)-N-(4-ethoxyphenyl)acetamide] |  | 33% |  | 44% |  | 57% | 71% |  |  | 4 | 8 mm | 10 mm | 136 to 137 °C | 12 mm | 25.5 ± 2 µM
4 | Nc1ccc([Se]CC(=O)N[C@@H](Cc2c[nH]c3ccccc23)C(=O)O)cc1 [Compound 6, (2-((4-aminophenyl)selanyl)acetyl)tryptophan] |  | 83% |  | 74% |  | 86% | 91% | 24.03 ± 0.23 µM |  | 5 | 20 mm | 17 mm | 154 to 156 °C | 18 mm | 5.69 ± 0.4 µM
5 | O=C(O)CCC(=O)Nc1ccc([Se]CC(=O)Nc2ccccc2)cc1 [Compound 11, 4-oxo-4-((4-((2-oxo-2-(phenylamino)ethyl)selanyl)phenyl)amino)butanoic acid] |  | 54% |  | 52% |  | 62% | 76% |  |  | 3.2 | 13 mm | 12 mm | 163 to 165 °C | 13 mm | 21.2 ± 1.8 µM
6 | O=C(C[Se]c1ccc(N2C(=O)CCC2=O)cc1)Nc1ccccc1 [Compound 14, 2-((4-(2,5-dioxopyrrolidin-1-yl)phenyl)selanyl)-N-phenylacetamide] |  | 63% |  | 57% |  | 67% | 77% |  |  | 3.6 | 15 mm | 13 mm | 159 to 161 °C | 14 mm | 17.1 ± 1.4 µM
7 | C[Se]c1ccc(NC(=O)C=CC(=O)O)cc1 [Compound 15, 4-((4-(methylselanyl)phenyl)amino)-4-oxobut-2-enoic acid] |  | 67% |  | 65% |  | 71% | 87% |  |  | 2.8 | 16 mm | 15 mm | 171 °C | 15 mm | 7.03 ± 0.6 µM
8 | C[Se]c1ccc(NC(=O)CCC(=O)O)cc1 [Compound 16, 4-((4-(methylselanyl)phenyl)amino)-4-oxobutanoic acid] |  | 50% |  |  |  | 43% | 67% |  |  | 0.7 | 12 mm | 10 mm | 169.6 °C |  | 29.5 ± 2.2 µM
